How the values were obtained:
[1] = target: Phosphatidylinositol 4,5-bisphosphate 3-kinase catalytic subunit beta isoform (Homo sapiens, UniProt P42338); test: KINOMEscan Enzyme Binding Assays
Description: (§1) Kinase enzyme binding affinities of compounds disclosed herein were determined using the KINOMEscan technology performed by DiscoveRx Corporation, San Diego, Calif., USA (www.kinomescan.com).

[2] = target: Phosphatidylinositol 4,5-bisphosphate 3-kinase catalytic subunit alpha isoform (Homo sapiens, UniProt P42336); test: KINOMEscan Enzyme Binding Assays
Description: as §1

Phosphatidylinositol 4,5-bisphosphate 3-kinase catalytic subunit beta isoform, sequence (P42338 whole entry, canonical isoform): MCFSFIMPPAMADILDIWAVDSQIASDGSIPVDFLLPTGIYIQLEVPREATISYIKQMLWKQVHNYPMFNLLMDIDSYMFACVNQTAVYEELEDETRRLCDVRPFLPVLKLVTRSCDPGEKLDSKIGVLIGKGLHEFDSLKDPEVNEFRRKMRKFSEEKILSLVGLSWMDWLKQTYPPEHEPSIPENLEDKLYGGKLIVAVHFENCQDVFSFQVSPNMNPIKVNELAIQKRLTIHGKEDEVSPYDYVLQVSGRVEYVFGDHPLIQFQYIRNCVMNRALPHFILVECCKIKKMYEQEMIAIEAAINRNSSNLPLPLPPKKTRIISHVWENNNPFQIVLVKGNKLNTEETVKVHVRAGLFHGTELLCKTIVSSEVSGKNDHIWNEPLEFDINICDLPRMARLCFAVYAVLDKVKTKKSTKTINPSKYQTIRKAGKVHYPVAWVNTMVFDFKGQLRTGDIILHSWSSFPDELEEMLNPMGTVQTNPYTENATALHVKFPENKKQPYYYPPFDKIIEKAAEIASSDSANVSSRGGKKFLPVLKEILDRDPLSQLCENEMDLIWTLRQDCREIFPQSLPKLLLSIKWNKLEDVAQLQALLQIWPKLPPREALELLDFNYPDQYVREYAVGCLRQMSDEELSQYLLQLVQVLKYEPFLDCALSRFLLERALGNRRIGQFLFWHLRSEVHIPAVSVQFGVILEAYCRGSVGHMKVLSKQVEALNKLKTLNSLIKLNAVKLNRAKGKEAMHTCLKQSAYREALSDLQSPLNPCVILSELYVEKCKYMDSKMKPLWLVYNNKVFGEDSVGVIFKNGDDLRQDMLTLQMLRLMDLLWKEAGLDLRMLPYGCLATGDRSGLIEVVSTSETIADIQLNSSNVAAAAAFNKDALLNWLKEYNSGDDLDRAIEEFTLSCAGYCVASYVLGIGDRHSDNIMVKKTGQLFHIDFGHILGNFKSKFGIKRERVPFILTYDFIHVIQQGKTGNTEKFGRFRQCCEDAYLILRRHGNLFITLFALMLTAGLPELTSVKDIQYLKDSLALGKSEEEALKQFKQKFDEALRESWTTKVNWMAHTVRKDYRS
Phosphatidylinositol 4,5-bisphosphate 3-kinase catalytic subunit alpha isoform, sequence (P42336 whole entry, canonical isoform): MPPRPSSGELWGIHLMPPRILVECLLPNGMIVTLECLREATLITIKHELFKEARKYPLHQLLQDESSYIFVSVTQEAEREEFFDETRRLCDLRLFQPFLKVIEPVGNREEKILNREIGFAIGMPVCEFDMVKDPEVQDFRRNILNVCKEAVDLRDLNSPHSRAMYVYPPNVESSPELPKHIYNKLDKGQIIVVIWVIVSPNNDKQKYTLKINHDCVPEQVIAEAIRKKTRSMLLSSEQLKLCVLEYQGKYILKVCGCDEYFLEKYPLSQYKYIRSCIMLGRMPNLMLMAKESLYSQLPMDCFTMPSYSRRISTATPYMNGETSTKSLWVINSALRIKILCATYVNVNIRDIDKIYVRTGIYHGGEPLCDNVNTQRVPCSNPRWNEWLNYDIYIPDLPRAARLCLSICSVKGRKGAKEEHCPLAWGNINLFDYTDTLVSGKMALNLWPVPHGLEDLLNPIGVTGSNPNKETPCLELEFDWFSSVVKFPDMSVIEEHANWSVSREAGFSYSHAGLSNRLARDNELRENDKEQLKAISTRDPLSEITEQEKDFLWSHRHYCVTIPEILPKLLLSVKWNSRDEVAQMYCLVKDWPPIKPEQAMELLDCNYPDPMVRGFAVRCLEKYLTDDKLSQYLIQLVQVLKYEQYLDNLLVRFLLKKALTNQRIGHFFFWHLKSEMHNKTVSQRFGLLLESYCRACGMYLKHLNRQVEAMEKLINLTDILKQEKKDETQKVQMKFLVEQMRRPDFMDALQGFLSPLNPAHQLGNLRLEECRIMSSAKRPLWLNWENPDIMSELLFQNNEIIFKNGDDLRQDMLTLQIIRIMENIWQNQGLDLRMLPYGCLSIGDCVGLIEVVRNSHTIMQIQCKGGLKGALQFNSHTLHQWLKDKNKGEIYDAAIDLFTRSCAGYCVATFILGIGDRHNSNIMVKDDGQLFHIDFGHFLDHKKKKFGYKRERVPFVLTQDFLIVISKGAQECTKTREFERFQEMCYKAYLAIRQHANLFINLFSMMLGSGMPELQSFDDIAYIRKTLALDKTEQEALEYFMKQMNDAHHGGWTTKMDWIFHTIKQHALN

Kd [1] [nM] | Kd [2] [nM] | SMILES
1.9 | 886 | Cc1c(Cc2c(CO)nc3c(-c4cnc[nH]4)cc(N4CCOCC4)nn23)cccc1C(F)(F)F [US10087187, Compound 19]
6.2 | 5890 | CCc1c(F)cccc1Cc1c(CNCCO)nc2c(N)cc(N3CCOCC3)nn12 [US10087187, Compound 101]

From BindingDB's records for patent US10087187 (Janssen Pharmaceutica, 2018)
